Measurements taken from patent US10533034B2, “Human iNKT cell activation using glycolipids” (ACADEMIA SINICA, priority 2014, dated 2020).

What was measured:
[1] = system: mCD1d dimer; assay: Binding strength of the binary complex between mCD1d and glycolipid (L363 antibody ELISA); design: species or system mouse
Description: (10A, 10B) Different concentrations of mCD1d-glycolipid complexes coated on the ELISA plate were incubated with the saturated amount of L363 antibody conjugated with biotin, followed by streptavidin-HRP detection and ELISA measurement. (10A) The relationship between OD values reflecting L363 antibody binding and the concentration of CD1ddi-glycolipids complex was plotted. (10B) The dissociation constant (KD) between L363 antibody and the indicated mCD1d-glycolipid complex was calculated as described in Materials and methods. (10C) The relationship between OD values reflecting L363 antibody binding and the concentration of glycolipids was plotted. (10D) KD values of the binary complex were calculated from the linear regression of the Scatchard transformation of the L363 antibody binding curve (10C).
Different concentrations of mCD1d^di-glycolipid complexes coated on the ELISA plate were incubated with the saturated amounts of L363 antibody (BioLegend) conjugated with biotin, followed by streptavidin-HRP detection and ELISA measurement. The KD between L363 antibody and the indicated mCD1d^di-glycolipid complex was calculated from the linear regression of the Scatchard transformation of the L363 antibody binding curve using GraphPad Prism software. […] Next, the KD of the binary complex was determined as follows. […]

[2] = system: B6 wild type mice; conditions: previously reported; cited from earlier work
[3] = system: B6 Jα18 KO mice splenocytes; assay: FACS analyses of Jα18 KO mouse immune cells after glycolipid stimulation; type: in vivo; conditions: 1 μg/mouse i.v.; 3 days
Description: B6 Jα18 KO mice treated with the indicated glycolipid (1 μg/mouse) or vehicle (% DMSO in PBS) were sacrificed at 72 hr post-injection and their splenocytes were subjected to FACS analysis. (9A) The total splenocytes, (9B) total CD11Chi cells, (9C) CD11Chi/CD80+ cells, (9D) CD11Chi/CD86+ cells, (9E) CD4^+ T cells and (9F) CD8^+ T cells (student t test: *, p<0.05, as compared to D).
B6 WT or Jα18 KO mice treated with specific glycolipid (1 μg/mouse) or vehicle (1% DMSO in PBS) were sacrificed at 72 hr post-injection and their spleens were harvested. After pressing spleens through 70 um strainer and lysis of erythrocytes, the nucleated cells were resuspended in PBS buffer containing azide (0.05%) and stained with antibodies recognizing the indicated cell surface antigens for 30 min at 4° C. After washing, the splenocytes were subjected to FACS analysis. The antibodies against CD3, CD4, CD8α, CD11c, CD80, and CD86 were obtained from BD Bioscience-Pharmingen.
Unexpectedly, we also observed that 7DW8-5-Glc induced chemokines in Jα18 KO mice (FIG. 7).

[4] = system: iNKT TCR of DN3A4-1.2 Vα14+ iNKT hybridoma cells; assay: Binding avidity of mCD1d-loaded glycolipids to Vα14+ iNKT cells (ternary interaction); design: species or system mouse
Description: (3A) DN3A4-1.2 Vα14+ iNKT hybridoma cells and (3B) 7DW8-5-expanded Vα24^+ iNKT cells were incubated with various concentrations of the indicated dimeric mCD d-glycolipid and hCD1d-glycolipid complexes for 30 min at 4° C., respectively. The level of bound complexes at the indicated concentration was detected by anti-mIgG1 secondary antibody and analyzed by flow cytometry. The relationship between the binding percentage and the concentration of CD1ddi-glycolipids complex was plotted in mice (3A) and humans (3B). KD values in mice (3C) and humans (3D) were calculated from Scatchard transformation of the plot (3A) and 3B), respectively. Assay was performed in duplicates.
Briefly, murine CD1d:Ig dimer (BD Biosciences PharMingen, San Diego, Calif.) was loaded with glycolipids at a molar ratio of 1:10 or vehicle for overnight at 37° C. Murine 1.2 Vα14+ iNKT cells were incubated with various doses of dimer-glycolipid complex in buffer containing azide (0.05%) for 30 min at 4° C. These cells were then stained with anti-mouse IgG1-PE mAb (A85-1) for another 30 min at 4° C., followed by washing, fixation with 4% paraformaldehyde (PFA), and the bound mCD1d dimer complexes were detected by flow cytometry. The binding curve and linear fit of the Scatchard transformation were plotted by Graphpad Prism software.
Next, we measured the ternary interaction between CD1d-glcolipid complex and the iNKT TCR in mice and humans. Different concentrations of mCD1d^di-glycolipid and hCD1d^di-glycolipid complexes were incubated with fixed amounts of DN3A4-1.2 murine iNKT hybridoma cells and human Vα24+/Vβ11^+ iNKT cells, respectively. The level of bound complexes at the indicated concentration was detected by anti-mIgG1 secondary antibody and analyzed by flow cytometry (FIGS. 3A and 3B). The KD of the ternary complex was calculated from the Scatchard transformation of the plots in FIGS. 3A and 3B using GraphPad Prism software. […] This was consistent with the observation that higher percentages of C1-pulsed splenocytes were stained by the mCD1d-7DW8-5 complex (36.2±5.0%) than mCD1d-7DW8-5-Glc complex (17.1±0.8%) (FIG. 11).

| Structure (SMILES) | binding avidity to mCD1d dimer, fold greater than αGalCer [1] | dose sufficient for immune stimulation [2] | total splenocytes, CD4+ T and CD8+ T cells in Jα18 KO mice [3] | fold stronger interaction with iNKT TCR than mCD1d-7DW8-5-Glc complex ([4]; mCD1d complex) | expansion/activation of CD11chi monocyte-derived DCs in Jα18 KO mice [3] | staining of murine iNKT cells with CD1d-glycolipid dimer [4] |
| --- | --- | --- | --- | --- | --- | --- |
| CCCCCCCCCCCCCC[C@@H](O)[C@@H](O)[C@H](CO[C@H]1O[C@H](CO)[C@H](O)[C@H](O)[C@H]1O)NC(=O)CCCCCCCCCCc1ccc(F)cc1 [Compound 7DW8-5, reference compound] | ~20 fold | 0.1 μg/mouse | No significant differences | ~10 fold | – | – |
| CC[C@@H](O)[C@@H](O)[C@H](CO[C@H]1OC(CO)[C@@H](O)C(O)C1O)NC(=O)Cc1ccc(F)cc1 (some centres unmarked) [Compound 7DW8-5-Glc] | ~20 fold | – | No significant differences | – | significantly expanded and activated | – |
| CCCCCCCCCCCCCC[C@@H](O)[C@@H](O)[C@H](CO[C@H]1O[C@H](CO)[C@@H](O)[C@H](O)[C@@H]1O)NC(=O)CCCCCCCCCCc1ccc(F)cc1 [Compound 7DW8-5-Man] | – | – | – | – | – | lack of staining |
